Key:
Assay type in all cases: cell-based, mouse
[1] = tested on: β-galactosidase in CMV-LacZ C2C12 myotubes; test: CMV-LacZ secondary screen in C2C12 myotubes (β-Gal stabilizing assay); details: for CMV-LACZ in Myotubes (β-galactosidase activity relative to DMSO): CMV-LacZ C2C12 myotubes, 96-well format
Procedure, shortened: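 CMV-LacZ C2C12 line (clonal, FDG-screened); myoblasts/myotubes dosed 0.5–40 μM (0.5, 1, 5, 10, 20, 40 μM); n=2 per point; β-gal stabilization read-out.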

[2] = tested on: α7 integrin (LacZ reporter in α7+/LacZ myotubes); test: Myotube α7 integrin FDG assay (Burkin assay in myotubes, 96-well); details: myotubes
[3] = tested on: α7 integrin (LacZ reporter in α7βgal+/− myoblasts); test: Myoblast α7+/LacZ integrin FDG assay (Burkin assay in myoblasts, 96-well); details: α7+/LacZ myoblasts, 96-well
[4] = 5 uM, C2C12 CMV-LacZ myotubes, fold relative to DMSO
[5] = 10 uM, C2C12 CMV-LacZ myotubes, fold relative to DMSO
[6] = 20 uM, C2C12 CMV-LacZ myotubes, fold relative to DMSO
[7] = 40 uM, C2C12 CMV-LacZ myotubes, fold relative to DMSO

COc1cc2c(cc1NC(=O)Cc1ccc(C)cc1)oc1ccccc12 [MLS000579238-01]
fold induction at 5 µM ([1]; Mus musculus, C2C12, read-out: CMV-LACZ in Myotubes, signal relative to DMSO, 5 uM, C2C12 CMV-LacZ myotubes, fold relative to DMSO): 0.815 | fold induction at 10 µM ([1]; Mus musculus, C2C12, read-out: CMV-LACZ in Myotubes, signal relative to DMSO, 10 uM, C2C12 CMV-LacZ myotubes, fold relative to DMSO): 0.872 | fold induction at 20 µM ([1]; Mus musculus, C2C12, read-out: CMV-LACZ in Myotubes, signal relative to DMSO, 20 uM, C2C12 CMV-LacZ myotubes, fold relative to DMSO): 0.83 | fold induction at 40 µM ([1]; Mus musculus, C2C12, read-out: CMV-LACZ in Myotubes, signal relative to DMSO, 40 uM, C2C12 CMV-LacZ myotubes, fold relative to DMSO): 0.944 | fold induction at 0.5 µM ([2]; Mus musculus, Myotube, 0.5 uM, read-out: Burkin Assay in Myotubes, α7 integrin LacZ reporter signal relative to DMSO): 0.951 | fold induction at 1 µM ([2]; Mus musculus, Myotube, 1 uM, read-out: Burkin Assay in Myotubes, α7 integrin LacZ reporter signal relative to DMSO): 1.11 | fold induction at 5 µM ([2]; Mus musculus, Myotube, 5 uM, read-out: Burkin Assay in Myotubes, α7 integrin LacZ reporter signal relative to DMSO): 1.01 | fold induction at 10 µM ([2]; Mus musculus, Myotube, 10 uM, read-out: Burkin Assay in Myotubes, α7 integrin LacZ reporter signal relative to DMSO): 1.1 | fold induction at 20 µM ([2]; Mus musculus, Myotube, 20 uM, read-out: Burkin Assay in Myotubes, α7 integrin LacZ reporter signal relative to DMSO): 0.856 | fold induction at 40 µM ([2]; Mus musculus, Myotube, 40 uM, read-out: Burkin Assay in Myotubes, α7 integrin LacZ reporter signal relative to DMSO): 0.771 | fold induction at 0.5 µM ([3]; Mus musculus, Myoblast, 48 h, 0.5 uM, read-out: Burkin Assay in Myoblasts, signal relative to DMSO): 0.961 | fold induction at 1 µM ([3]; Mus musculus, Myoblast, 48 h, 1 uM, read-out: Burkin Assay in Myoblasts, signal relative to DMSO): 1.11 | fold induction at 5 µM ([3]; Mus musculus, Myoblast, 48 h, 5 uM, read-out: Burkin Assay in Myoblasts, signal relative to DMSO): 1.17 | fold induction at 10 µM ([3]; Mus musculus, Myoblast, 48 h, 10 uM, read-out: Burkin Assay in Myoblasts, signal relative to DMSO): 1.3 | fold induction at 20 µM ([3]; Mus musculus, Myoblast, 48 h, 20 uM, read-out: Burkin Assay in Myoblasts, signal relative to DMSO): 1.11 | fold induction at 40 µM ([3]; Mus musculus, Myoblast, 48 h, 40 uM, read-out: Burkin Assay in Myoblasts, signal relative to DMSO): 0.912

O=C(O)c1cc(-c2ccccc2Cl)n(-c2cccc(Cl)c2)n1 [MLS001166325-01]
CMV-LACZ in Myotubes, signal relative to DMSO [1, 4]: 0.7726 | CMV-LACZ in Myotubes, signal relative to DMSO [1, 5]: 0.9795 | CMV-LACZ in Myotubes, signal relative to DMSO [1, 6]: 0.8969 | CMV-LACZ in Myotubes, signal relative to DMSO [1, 7]: 0.8785 | Burkin Assay in Myotubes (signal relative to DMSO) ([2]; 0.5 uM): 1.057 | Burkin Assay in Myotubes (signal relative to DMSO) ([2]; 1 uM): 1.049 | Burkin Assay in Myotubes (signal relative to DMSO) ([2]; 5 uM): 1.112 | Burkin Assay in Myotubes (signal relative to DMSO) ([2]; 10 uM): 1.065 | Burkin Assay in Myotubes (signal relative to DMSO) ([2]; 20 uM): 0.9593 | Burkin Assay in Myotubes (signal relative to DMSO) ([2]; 40 uM): 1.0054 | Burkin Assay in Myoblasts, value relative to DMSO ([3]; 0.5 uM): 1.017 | Burkin Assay in Myoblasts, value relative to DMSO ([3]; 1 uM): 0.9268 | Burkin Assay in Myoblasts, value relative to DMSO ([3]; 5 uM): 0.9487 | Burkin Assay in Myoblasts, value relative to DMSO ([3]; 10 uM): 0.9453 | Burkin Assay in Myoblasts, value relative to DMSO ([3]; 20 uM): 0.9772 | Burkin Assay in Myoblasts, value relative to DMSO ([3]; 40 uM): 1.032

CS(=O)(=O)Cc1cccc(C(=O)NN(c2ccccc2)c2ccccc2)c1 [MLS001175473-01]
CMV-LACZ in Myotubes (β-galactosidase activity relative to DMSO) ([1]; 5 uM): 0.8962 | CMV-LACZ in Myotubes (β-galactosidase activity relative to DMSO) ([1]; 10 uM): 0.8587 | CMV-LACZ in Myotubes (β-galactosidase activity relative to DMSO) ([1]; 20 uM): 0.9592 | CMV-LACZ in Myotubes (β-galactosidase activity relative to DMSO) ([1]; 40 uM): 1.066 | Burkin Assay in Myotubes (signal relative to DMSO) ([2]; 0.5 uM): 0.9556 | Burkin Assay in Myotubes (signal relative to DMSO) ([2]; 1 uM): 0.9177 | Burkin Assay in Myotubes (signal relative to DMSO) ([2]; 5 uM): 0.8872 | Burkin Assay in Myotubes (signal relative to DMSO) ([2]; 10 uM): 0.9977 | Burkin Assay in Myotubes (signal relative to DMSO) ([2]; 20 uM): 1.041 | Burkin Assay in Myotubes (signal relative to DMSO) ([2]; 40 uM): 0.7971 | Burkin Assay in Myoblasts, value relative to DMSO ([3]; 0.5 uM): 0.5331 | Burkin Assay in Myoblasts, value relative to DMSO ([3]; 1 uM): 0.3721 | Burkin Assay in Myoblasts, value relative to DMSO ([3]; 5 uM): 0.8732 | Burkin Assay in Myoblasts, value relative to DMSO ([3]; 10 uM): 0.8715 | Burkin Assay in Myoblasts, value relative to DMSO ([3]; 20 uM): 0.899 | Burkin Assay in Myoblasts, value relative to DMSO ([3]; 40 uM): 0.8698

O=C(Nc1ccc(Oc2cccnc2)cc1)c1ccccc1Cl [MLS000574647-01]
CMV-LACZ in Myotubes, signal relative to DMSO [1, 4]: 0.9166 | CMV-LACZ in Myotubes, signal relative to DMSO [1, 5]: 0.9364 | CMV-LACZ in Myotubes, signal relative to DMSO [1, 6]: 0.962 | CMV-LACZ in Myotubes, signal relative to DMSO [1, 7]: 1.0095 | Burkin Assay in Myotubes, α7 integrin LacZ reporter signal relative to DMSO ([2]; 0.5 uM): 0.935 | Burkin Assay in Myotubes, α7 integrin LacZ reporter signal relative to DMSO ([2]; 1 uM): 0.8646 | Burkin Assay in Myotubes, α7 integrin LacZ reporter signal relative to DMSO ([2]; 5 uM): 1.007 | Burkin Assay in Myotubes, α7 integrin LacZ reporter signal relative to DMSO ([2]; 10 uM): 0.8596 | Burkin Assay in Myotubes, α7 integrin LacZ reporter signal relative to DMSO ([2]; 20 uM): 1.006 | Burkin Assay in Myotubes, α7 integrin LacZ reporter signal relative to DMSO ([2]; 40 uM): 0.8219 | Burkin Assay in Myoblasts, signal relative to DMSO ([3]; 0.5 uM): 1.081 | Burkin Assay in Myoblasts, signal relative to DMSO ([3]; 1 uM): 1.027 | Burkin Assay in Myoblasts, signal relative to DMSO ([3]; 5 uM): 0.9641 | Burkin Assay in Myoblasts, signal relative to DMSO ([3]; 10 uM): 0.9515 | Burkin Assay in Myoblasts, signal relative to DMSO ([3]; 20 uM): 0.8985 | Burkin Assay in Myoblasts, signal relative to DMSO ([3]; 40 uM): 0.8343

Cc1cc(C(=O)Nc2cccc3ccccc23)c(C)o1 [MLS001219345-01]
CMV-LACZ in Myotubes, signal relative to DMSO [1, 4]: 1.188 | CMV-LACZ in Myotubes, signal relative to DMSO [1, 5]: 0.8631 | CMV-LACZ in Myotubes, signal relative to DMSO [1, 6]: 1.0075 | CMV-LACZ in Myotubes, signal relative to DMSO [1, 7]: 1.0255 | Burkin Assay in Myotubes, α7 integrin LacZ reporter signal relative to DMSO ([2]; 0.5 uM): 0.9416 | Burkin Assay in Myotubes, α7 integrin LacZ reporter signal relative to DMSO ([2]; 1 uM): 0.9889 | Burkin Assay in Myotubes, α7 integrin LacZ reporter signal relative to DMSO ([2]; 5 uM): 1.078 | Burkin Assay in Myotubes, α7 integrin LacZ reporter signal relative to DMSO ([2]; 10 uM): 1.0424 | Burkin Assay in Myotubes, α7 integrin LacZ reporter signal relative to DMSO ([2]; 20 uM): 0.7146 | Burkin Assay in Myotubes, α7 integrin LacZ reporter signal relative to DMSO ([2]; 40 uM): 0.9232 | Burkin Assay in Myoblasts, signal relative to DMSO ([3]; 0.5 uM): 0.3027 | Burkin Assay in Myoblasts, signal relative to DMSO ([3]; 1 uM): 1.119 | Burkin Assay in Myoblasts, signal relative to DMSO ([3]; 5 uM): 1.046 | Burkin Assay in Myoblasts, signal relative to DMSO ([3]; 10 uM): 1.014 | Burkin Assay in Myoblasts, signal relative to DMSO ([3]; 20 uM): 0.9807 | Burkin Assay in Myoblasts, signal relative to DMSO ([3]; 40 uM): 0.9227

CCc1nnc(NC(=O)c2ccc(S(=O)(=O)NCC(C)C)cc2)s1 [MLS000027478-01]
CMV-LACZ in Myotubes, signal relative to DMSO [1, 4]: 0.9489 | CMV-LACZ in Myotubes, signal relative to DMSO [1, 5]: 0.924 | CMV-LACZ in Myotubes, signal relative to DMSO [1, 6]: 0.9443 | CMV-LACZ in Myotubes, signal relative to DMSO [1, 7]: 0.979 | Burkin Assay in Myotubes, α7 integrin LacZ reporter signal relative to DMSO ([2]; 0.5 uM): 1.0222 | Burkin Assay in Myotubes, α7 integrin LacZ reporter signal relative to DMSO ([2]; 1 uM): 0.9043 | Burkin Assay in Myotubes, α7 integrin LacZ reporter signal relative to DMSO ([2]; 5 uM): 0.984 | Burkin Assay in Myotubes, α7 integrin LacZ reporter signal relative to DMSO ([2]; 10 uM): 0.9583 | Burkin Assay in Myotubes, α7 integrin LacZ reporter signal relative to DMSO ([2]; 20 uM): 0.9854 | Burkin Assay in Myotubes, α7 integrin LacZ reporter signal relative to DMSO ([2]; 40 uM): 0.9115 | Burkin Assay in Myoblasts, signal relative to DMSO ([3]; 0.5 uM): 0.9552 | Burkin Assay in Myoblasts, signal relative to DMSO ([3]; 1 uM): 0.9044 | Burkin Assay in Myoblasts, signal relative to DMSO ([3]; 5 uM): 0.9721 | Burkin Assay in Myoblasts, signal relative to DMSO ([3]; 10 uM): 0.9209 | Burkin Assay in Myoblasts, signal relative to DMSO ([3]; 20 uM): 0.9145 | Burkin Assay in Myoblasts, signal relative to DMSO ([3]; 40 uM): 0.816

From patent publication US9980943B2, “Methods of treating muscular dystrophy” (BOARD OF REGENTS OF THE NEVADA SYSTEM OF HIGHER EDUCATION, …, priority 2013, dated 2018)
